From ChEMBL document CHEMBL2046321, “Molecular Docking and in Vitro Antileishmanial Evaluation of Chromene-2-thione Analogues” (ACS Med Chem Lett, 2012)

Tests used:
[1] = Cytotoxicity against human PBMC assessed as cell killing at IC50 after 48 hrs by MTT assay; conditions: PBMC (peripheral blood mononuclear cells)
[2] = tested on: Leishmania donovani; assay: Ratio of IC50 for promastigotes of Leishmania donovani LEM-138 (MHOM/IN/00/DEVI) to IC50 for axenic amastigotes of Leishmania donovani LEM-138 (MHOM/IN/00/DEVI); type: functional
[3] = tested on: Leishmania donovani; assay: Antileishmanial activity against promastigotes of Leishmania donovani LEM-138 (MHOM/IN/00/DEVI) by MTT assay; type: functional, organism-based
[4] = tested on: Leishmania donovani; assay: Antileishmanial activity against axenic amastigotes of Leishmania donovani LEM-138 (MHOM/IN/00/DEVI) by MTT assay; type: functional, organism-based
[5] = Cytotoxicity against human PBMC assessed as cell killing at 2 times IC50 after 48 hrs by MTT assay; conditions: PBMC (peripheral blood mononuclear cells)
[6] = tested on: Leishmania donovani; assay: Antileishmanial activity against amastigotes of Leishmania donovani LEM-138 (MHOM/IN/00/DEVI) infected in mouse J774A.1 cells after 72 hrs by Giemsa dye staining; type: functional, organism-based; conditions: J774.A1, 72 h

| Structure (SMILES) | cell killing at 48 h [1] | Ratio IC50 [2] | IC50 [3] | IC50 [4] | cell killing at 48 h [5] | IC50 [6] |
| --- | --- | --- | --- | --- | --- | --- |
| COc1ccc(C(=O)c2cc3cc(Br)ccc3oc2=S)cc1 | 32.9% | 2.3 | 450 µM | 198 µM | 40.5% | 17 µM |
| COc1ccc(C(=O)c2cc3c(ccc4ccccc43)oc2=S)cc1 | 15.1% | 1.5 | 335 µM | 221 µM | 27% | – |
| O=C(c1ccco1)c1cc2c(ccc3ccccc32)oc1=S | 12% | 75 | 2770 µM | 37 µM | 27.8% | – |
| C[C@@H]1[C@H](O)[C@@H](C)/C=C/C=C/C=C/C=C/C=C/C=C/C=C/[C@H](O[C@@H]2O[C@H](C)[C@@H](O)[C@H](N)[C@@H]2O)C[C@@H]2O[C@](O)(C[C@@H](O)C[C@@H](O)[C@H](O)CC[C@@H](O)C[C@@H](O)CC(=O)O[C@H]1C)C[C@H](O)[C@H]2C(=O)O [AMPHOTERICIN B] | 16% | – | 0.465 µM | 0.061 µM | 24.4% | – |
| COc1cccc2cc(C(=O)c3cccs3)c(=S)oc12 | 11.1% | 4.6 | 4300 µM | 927 µM | 19.5% | – |
| O=C(c1cccs1)c1cc2c(ccc3ccccc32)oc1=S | 28.8% | 2.7 | 97 µM | 36 µM | 24.6% | 22 µM |
| O=C(c1ccco1)c1cc2cc(Br)ccc2oc1=S | 10.7% | 2 | 1030 µM | 524 µM | 17.6% | – |
| COc1ccc(C(=O)c2cc3cccc(OC)c3oc2=S)cc1 | 16.6% | 2.8 | 1400 µM | 502 µM | 14.8% | – |
| COc1cccc2cc(C(=O)c3ccc(C)cc3)c(=S)oc12 | 9.4% | 1.7 | 744 µM | 446 µM | 33.1% | – |
| O=C(c1cccs1)c1cc2cc(Br)ccc2oc1=S | 10.9% | 55.8 | 4630 µM | 83 µM | 6.66% | – |
| COc1cccc2cc(C(=O)c3ccc(Cl)cc3)c(=S)oc12 | 0.46% | 0.66 | 48 µM | 73 µM | 20.2% | 24 µM |
| COc1cccc2cc(C(=O)c3ccco3)c(=S)oc12 | 12.3% | 18.8 | 1220 µM | 65 µM | 26% | 26 µM |
